Where a name gives a salt, the structure may show the parent alone.
Tests used:
[1] = target: T1, recombinant guanylate cyclase reporter cell line (Rattus norvegicus, UniProt P20595); assay: Effect on a recombinant guanylate cyclase reporter cell line; format: cell-based; settings: in some cases mean values from individual determinations; for MEC: MEC = minimum effective concentration; for EC50: half maximal effective concentration
T1 construct: expressed in transfected cells
T1 sequence (P20595 1-619): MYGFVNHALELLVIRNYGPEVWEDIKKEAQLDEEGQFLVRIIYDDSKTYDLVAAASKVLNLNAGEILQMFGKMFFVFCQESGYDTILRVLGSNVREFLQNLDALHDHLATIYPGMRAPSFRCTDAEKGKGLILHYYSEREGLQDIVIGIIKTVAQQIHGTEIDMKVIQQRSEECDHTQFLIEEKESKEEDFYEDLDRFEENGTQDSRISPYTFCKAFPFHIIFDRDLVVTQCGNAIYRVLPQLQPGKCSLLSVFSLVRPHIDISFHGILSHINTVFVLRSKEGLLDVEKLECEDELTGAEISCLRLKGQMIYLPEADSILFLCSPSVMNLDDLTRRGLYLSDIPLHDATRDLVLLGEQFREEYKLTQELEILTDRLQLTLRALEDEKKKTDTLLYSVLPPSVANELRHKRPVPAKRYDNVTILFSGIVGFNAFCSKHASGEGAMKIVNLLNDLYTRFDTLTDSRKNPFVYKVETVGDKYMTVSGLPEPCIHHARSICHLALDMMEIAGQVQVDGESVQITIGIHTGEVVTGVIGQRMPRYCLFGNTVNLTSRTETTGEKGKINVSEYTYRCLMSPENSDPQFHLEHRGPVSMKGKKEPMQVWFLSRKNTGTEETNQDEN
T1 sequence (P19686 1-690 partner): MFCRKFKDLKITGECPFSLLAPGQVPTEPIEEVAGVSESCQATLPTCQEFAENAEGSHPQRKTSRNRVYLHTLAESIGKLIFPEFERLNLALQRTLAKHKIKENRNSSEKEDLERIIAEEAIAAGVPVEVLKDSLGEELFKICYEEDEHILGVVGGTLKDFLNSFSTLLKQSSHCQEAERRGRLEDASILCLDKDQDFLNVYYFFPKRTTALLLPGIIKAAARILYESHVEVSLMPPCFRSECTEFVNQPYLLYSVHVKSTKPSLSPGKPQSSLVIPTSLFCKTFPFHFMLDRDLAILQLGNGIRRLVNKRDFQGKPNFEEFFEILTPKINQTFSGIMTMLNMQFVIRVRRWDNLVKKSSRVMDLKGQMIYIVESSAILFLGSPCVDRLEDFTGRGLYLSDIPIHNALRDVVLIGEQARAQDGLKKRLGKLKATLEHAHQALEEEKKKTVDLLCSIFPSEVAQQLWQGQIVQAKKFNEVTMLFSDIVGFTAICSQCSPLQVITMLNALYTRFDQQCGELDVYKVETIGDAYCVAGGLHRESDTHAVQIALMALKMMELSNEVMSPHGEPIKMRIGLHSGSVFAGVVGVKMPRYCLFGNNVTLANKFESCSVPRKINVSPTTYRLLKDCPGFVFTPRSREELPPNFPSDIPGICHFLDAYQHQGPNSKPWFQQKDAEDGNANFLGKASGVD
Description: The cellular activity of the compounds according to the invention was determined using a recombinant guanylate cyclase reporter cell line, as described in F. Wunder et al., Anal. Biochem. 339, 104-112 (2005).

[2] = Pharmacokinetic parameters following oral administration in rats; format: in vivo
Description: (§1) The pharmacokinetic parameters of the compounds according to the invention were determined in male Wistar rats and/or in female beagles and/or in cynomolgus monkeys and/or in male CD-1 mice. Intravenous administration in the case of mice and rats was carried out by means of a species-specific plasma/DMSO formulation, and in the case of dogs and monkeys by means of a water/PEG400/ethanol formulation. In all species, oral administration of the dissolved substance was performed via gavage, based on a water/PEG400/ethanol formulation.
(§2) An internal standard (which may also be a chemically unrelated substance) was added to the samples of the compounds of the invention, calibration samples and qualifiers, and there followed protein precipitation by means of acetonitrile in excess. Addition of a buffer solution matched to the LC conditions, and subsequent vortexing, was followed by centrifugation at 1000 g. The supernatant was analysed by LC-MS/MS using C18 reversed-phase columns and variable mobile phase mixtures. The substances were quantified via the peak heights or areas from extracted ion chromatograms of specific selected ion monitoring experiments.
The plasma concentration/time plots determined were used to calculate the pharmacokinetic parameters such as AUC, Cmax, t1/2 (terminal half-life), F (bioavailability), MRT (mean residence time) and CL (clearance), by means of a validated pharmacokinetic calculation program.
Since the substance quantification was performed in plasma, it was necessary to determine the blood/plasma distribution of the substance in order to be able to adjust the pharmacokinetic parameters correspondingly. For this purpose, a defined amount of substance was incubated in K3 EDTA whole blood of the species in question in a rocking roller mixer for 20 min. After centrifugation at 1000 g, the plasma concentration was measured (by means of LC-MS/MS; see above) and determined by calculating the ratio of the Cblood/Cplasma value.

[3] = Pharmacokinetic parameters following intravenous administration in rats; format: in vivo
Description: as §1
as §2, with “Addition of a buffer solution matched to the LC conditions, and subsequent vortexing, was followed by centrifugation at 1000 g.” left out
The plasma concentration/time plots determined were used to calculate the pharmacokinetic parameters such as AUC, Cmax, t1/2 (terminal half-life), F (bioavailability), MRT (mean residence time) and CL (clearance), by means of a validated pharmacokinetic calculation program. […]

| Compound | MEC [1] [nM] | bioavailability in comparison to prior art (WO 2012/058132) ([2]; after oral (p.o.) application) | AUCnorm ([2]; oral administration in rats) [kg·h/L] | F ([2]; oral administration in rats, F = bioavailability) [%] | AUCnorm [3] [kg·h/L] | MEC ([1]; hydrochloride) [nM] | EC50 [1] [nM] |
| --- | --- | --- | --- | --- | --- | --- | --- |
| O=C(O)c1cnn(C2CCCN(c3cc(Cl)ccc3-c3ccc(N4CCN(CC5CC5)CC4)cc3)C2)c1C(F)(F)F (single isomer, unassigned) [Example 7, 1-[1-[5-Chloro-2-[4-[4-(cyclopropylmethyl)piperazin-1-yl]phenyl]phenyl]-3-piperidyl]-5-(trifluoromethyl)pyrazole-4-carboxylic acid hydrochloride] | 2.0 | lower bioavailability | 0.52 | 37.4 | 1.37 | – | – |
| O=C(O)c1cnn(C2CCCN(c3cc(Cl)ccc3-c3ccc(N4CCN(CC5CC5F)CC4)cc3)C2)c1C(F)(F)F (single isomer, unassigned) [Example 26, 1-[1-[5-Chloro-2-[4-[4-[[2-trans-fluorocyclopropyl]methyl]piperazin-1-yl]phenyl]phenyl]-3-piperidyl]-5-(trifluoromethyl)pyrazole-4-carboxylic acid hydrochloride] | – | – | – | – | – | 1.0 | 5.2 |
| O=C(O)c1cnn(C2CCCN(c3cc(Cl)ccc3-c3ccc(N4CCN(CC5(F)CC5)CC4)cc3)C2)c1C(F)(F)F (single isomer, unassigned) [Example 9, 1-[1-[5-Chloro-2-[4-[4-[(1-fluorocyclopropyl)methyl]piperazin-1-yl]phenyl]phenyl]-3-piperidyl]-5-(trifluoromethyl)pyrazole-4-carboxylic acid hydrochloride] | 0.3 | – | – | – | – | – | 1.1 |
| O=C(O)c1cnn(C2CCCN(c3cc(Cl)ccc3-c3ccc(N4CCN(C(=O)[C@H]5C[C@H]5F)CC4)cc3)C2)c1C(F)(F)F (single isomer, unassigned) [Example 45, hydrochloride] | 3.0 | – | – | – | – | – | 14 |
| CC(C)CC(=O)N1CCN(c2ccc(-c3ccc(Cl)cc3N3CCCC(n4ncc(C(=O)O)c4C(F)(F)F)C3)cc2)CC1 (single isomer, unassigned) [Example 52, 1-[1-[5-Chloro-2-[4-[4-(3-methylbutanoyl)piperazin-1-yl]phenyl]phenyl]-3-piperidyl]-5-(trifluoromethyl)pyrazole-4-carboxylic acid] | 10.0 | – | – | – | – | – | 31 |
